Assay results taken from paper PMC9962452, “Modified Linear Peptides Effectively Silence STAT-3 in Breast Cancer and Ovarian Cancer Cell Lines” (Pharmaceutics, 2023).

Experiments:
scrambled siRNA [1] = test: SYBR green dye exclusion assay, binding of peptides to siRNA; conditions: scrambled siRNA in normal saline, N/P 0.05 to 40, 30 min room temperature, triplicates, sigmoidal model, value is an N/P ratio
Description: As previously reported, the binding affinity of selected peptides to siRNA was investigated using the SYBR green exclusion assay. The MLPs and scrambled siRNA were mixed in normal saline (in triplicates) with different N/P ratios ranging from 0.05 to 40. The mixture was incubated at room temperature for 30 min to ensure complete complexation of peptides and siRNA. After the incubation time, the complexes were transferred to a black 96-well plate. SYBR green dye solution for this assay was made by diluting 1 part of SYBR green dye with 10,000 parts of purified water. Then, 200 µL of the freshly made SYBR green dye dilution was added to each siRNA complex in the black 96-well plate. The plate was covered with aluminum foil before reading in a micro-plate reader that detected the fluorescent signal (485 nm excitation and 527 nm emission). […] The percentage of the siRNA complexed with the peptide was determined using the following equation: % siRNA bond to peptide=100−Fluorescence signal for complexed siRNA /Fluorescence signal for free siRNA×100 % siRNA bound to the peptide was plotted against a range of nitrogen to phosphate (N/P) ratios used in the experiment, and BR50 (the N/P ratio of the complex required to bind 50% of siRNA) was determined using a sigmoidal model. […]

scrambled siRNA [2] = test: Gel retardation / gel shifting assay, binding of peptides to siRNA; conditions: 1% agarose, ethidium bromide, N/P 0 to 60, 30 min room temperature, bands quantified with Image Lab, value is an N/P ratio
Description: In addition to the SYBR green dye exclusion assay described above, the binding affinity of the peptides to siRNA was also determined using the gel retardation/gel shifting assay. Briefly, the MLPs-siRNA complexes were prepared at different N to P ratios ranging from 0 to 60. The N/P ratio of zero represents free siRNA. The tubes containing complexes were incubated at room temperature for 30 min for complete complex formation. After this incubation time, the complexes were mixed with gel-loading dye. Each of the samples was loaded into the wells of 1% agarose gel with (1 μg/mL) ethidium bromide, and […] and 70 Volts were used to run the gel for 20 min. After the run, the gels were visualized under a Bio-Rad imager. The intensity of the bands was quantified by Image Lab software.
To support the data obtained by the SYBR green dye exclusion assay, the binding affinity of the MLPs with siRNA was also determined by the gel retardation assay (Figure 2). For this purpose, the MLPs-siRNA complexes were made in microtubes using purified normal saline at different N to P ratios ranging from 0 to 60. The N to P ratio of 0 represents siRNA only, with no peptide. The solutions in microtubes were allowed to stay at room temperature for 30 min to confer complete complex formation via electrostatic interactions between the MLPs and siRNA. […]

MDA-MB-231 cells = test: Confocal microscopy of siRNA internalization; assay type: cell-based; conditions: N/P ratio 40, 24 h, Alexa Fluor 488-labeled siRNA, comparable to Lipofectamine 2000
Description: In order to visualize and locate the internalized siRNA, samples for confocal microscopy were prepared using MDA-MB-231 cells, adopting the protocol described previously by our lab. Briefly, sterile 6-well plates were used, and sterile coverslips were placed at the bottom of each well. MDA-MB-231 cells suspended in 2 mL of media were seeded in each well, and the plates were incubated in an incubator at standard growth conditions. After incubation, the cells were exposed to MLPs-fluorescent-labeled siRNA complexes at a N/P ratio of 40 using the same method described above for the FACS assay. The treated cells were again incubated for 24 h to allow for the internalization of siRNA. After overnight incubation, the media was drained from each well, and the cells were rigorously washed with HBSS three times, followed by fixation with 3.7% formaldehyde in the HBSS solution. Following fixation, the cells were treated with Texas Red for 1 h at room temperature to stain the cell membrane. After 1 h of staining with Texas Red, the cells were stained with DAPI overnight at room temperature in a dark environment to stain the nuclei. Following successful nuclei staining, the coverslips containing fixed stained cells were transferred to slides for viewing under a high-definition confocal microscope (Nikon A1 R). […]

[3] = test system: STAT3 in MDA-MB-231 cells; test: Western blot of STAT3 protein after STAT3 siRNA delivery, MDA-MB-231; assay type: cell-based; conditions: n = 3
Description: The Western blot assay was used to evaluate the expression of STAT-3 protein in MDA-MB-231 cells using the protocol adopted from our previous study. Briefly, the cells were grown in T25 flasks and treated with MLP-siRNA complexes at N/P ratios of 20 and 40 for 48 h. Following treatment, the cells were harvested as pellets in microtubes and were lysed using RIPA lysis buffer supplanted with a protease inhibitor. The lysate was centrifuged for 15 min at 12,000 rpm at 4 °C to allow the separation of all cell proteins. The supernatant containing all cell proteins was separated in pre-cooled microtubes and the protein was quantified using the standard […].
Following the quantification of protein, the samples representing 15 µg of protein were mixed with gel loading dye and loaded in the wells of pre-formed gels and the electrophoresis was carried out at 200 V for 40 min. After the complete run, the gels were transferred to the Western blotting membrane using the Trans-Blot® machine. After successfully transferring gels onto the membrane, the membrane was blocked in 5% Bovine Serum Albumin in TBS-T buffer consisting of 1X tris-buffered saline and 0.1% Tween 20. […] Finally, the membrane was visualized under the Bio-Rad Imager, and the bands were quantified using Image Lab software. […]

Substance: AcNH-K(oleyl)-βA-βA-W4-βA-βA-R4-CONH2 [MLP4, oleic acid conjugated peptide, oleyl chain on the Lys side chain]
- BC50 ± SD (N/P ratio required for 50% binding of siRNA) (scrambled siRNA [1]): 0.963 ± 0.34
- BC50 (from quantified gel bands) (scrambled siRNA [2]): 0.9001
- Internalization of siRNA seen by confocal microscopy (MDA-MB-231 cells): significant internalization of siRNA in the cytosol
- Downregulation of STAT3 protein ([3]; N/P ratio 20, 48 h): > 90%
- Downregulation of STAT3 protein ([3]; N/P ratio 40, 48 h, GAPDH housekeeping): > 90%
